Results from the kinase profiling compilation of Christmann-Franck et al. (2016).
“And” between values parts separate entries of the source, which are not always exact repeats. Equal values may be shown once.

Tests used:
Experiment in all cases: radiometric filter-binding kinase assay, Kinase HotSpot
Settings in all cases: compound 0.5 µM; ATP 10 µM
CDK9 CCNK (human) = CDK9 CCNK (human) (UniProt O75909+P50750)
CDK5 CDK5R1 p35 (human) = CDK5 CDK5R1 p35 (human) (UniProt Q00535+Q15078)
PAK6 (human) = PAK6 (human) (UniProt Q9NQU5)
MST4 (human) = MST4 (human) (UniProt Q9P289)
MATK (human) = MATK (human) (UniProt P42679)
PRKCA (human) = PRKCA (human) (UniProt P17252)
PBK (human) = PBK (human) (UniProt Q96KB5)
CAMK1 (human) = CAMK1 (human) (UniProt Q14012)
PIM3 (human) = PIM3 (human) (UniProt Q86V86)
CDC42BPA (human) = CDC42BPA (human) (UniProt Q5VT25)
DYRK3 (human) = DYRK3 (human) (UniProt O43781)
PRKCH (human) = PRKCH (human) (UniProt P24723)
VRK1 (human) = VRK1 (human) (UniProt Q99986)
CDK7 CCNH MNAT1 (human) = CDK7 CCNH MNAT1 (human) (UniProt P50613+P51948+P51946)
CDK9 CCNT1 (human) = CDK9 CCNT1 (human) (UniProt P50750+O60563)
PIM2 (human) = PIM2 (human) (UniProt Q9P1W9)
CAMK2D (human) = CAMK2D (human) (UniProt Q13557)
ABL1 (human) = ABL1 (human) (UniProt P00519)
PAK3 (human) = PAK3 (human) (UniProt O75914)
HIPK2 (human) = HIPK2 (human) (UniProt Q9H2X6)
MAP3K11 (human) = MAP3K11 (human) (UniProt Q16584)
LYN (human) = LYN (human) (UniProt P07948)
PRKCG (human) = PRKCG (human) (UniProt P05129)
PDGFRA (human) = PDGFRA (human) (UniProt P16234)
PAK4 (human) = PAK4 (human) (UniProt O96013)
ROCK2 (human) = ROCK2 (human) (UniProt O75116)
FYN (human) = FYN (human) (UniProt P06241)
PRKG2 (human) = PRKG2 (human) (UniProt Q13237)
FGR (human) = FGR (human) (UniProt P09769)
CSNK2A1 (human) = CSNK2A1 (human) (UniProt P68400)
DAPK2 (human) = DAPK2 (human) (UniProt Q9UIK4)
MELK (human) = MELK (human) (UniProt Q14680)
ACVRL1 (human) = ACVRL1 (human) (UniProt P37023)
STK3 (human) = STK3 (human) (UniProt Q13188)
KIT (human) = KIT (human) (UniProt P10721)
TTK (human) = TTK (human) (UniProt P33981)
PKN2 (human) = PKN2 (human) (UniProt Q16513)
EPHA7 (human) = EPHA7 (human) (UniProt Q15375)
DSTYK (human) = DSTYK (human) (UniProt Q6XUX3)
MAP4K5 (human) = MAP4K5 (human) (UniProt Q9Y4K4)
MAP3K7 TAB1 (human) = MAP3K7 TAB1 (human) (UniProt O43318+Q15750)
Chain of MAP3K7 TAB1 (human) (O43318 whole entry, looked up): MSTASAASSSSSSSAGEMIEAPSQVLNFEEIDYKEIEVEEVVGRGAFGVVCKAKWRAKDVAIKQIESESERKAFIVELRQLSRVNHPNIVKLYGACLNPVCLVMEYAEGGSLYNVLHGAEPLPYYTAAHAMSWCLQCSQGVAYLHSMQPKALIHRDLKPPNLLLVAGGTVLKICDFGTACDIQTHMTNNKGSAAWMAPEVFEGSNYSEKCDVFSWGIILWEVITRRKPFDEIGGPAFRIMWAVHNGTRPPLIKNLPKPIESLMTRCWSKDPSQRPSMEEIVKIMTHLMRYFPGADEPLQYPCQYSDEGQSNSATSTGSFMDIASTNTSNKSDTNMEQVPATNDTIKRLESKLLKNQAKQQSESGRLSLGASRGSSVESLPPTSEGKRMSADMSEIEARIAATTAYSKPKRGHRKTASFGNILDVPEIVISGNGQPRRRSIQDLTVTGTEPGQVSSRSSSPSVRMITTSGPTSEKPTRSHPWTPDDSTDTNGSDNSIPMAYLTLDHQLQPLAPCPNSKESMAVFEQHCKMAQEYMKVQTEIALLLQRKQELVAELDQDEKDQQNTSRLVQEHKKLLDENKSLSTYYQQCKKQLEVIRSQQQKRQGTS
Chain of MAP3K7 TAB1 (human) (Q15750 whole entry, looked up): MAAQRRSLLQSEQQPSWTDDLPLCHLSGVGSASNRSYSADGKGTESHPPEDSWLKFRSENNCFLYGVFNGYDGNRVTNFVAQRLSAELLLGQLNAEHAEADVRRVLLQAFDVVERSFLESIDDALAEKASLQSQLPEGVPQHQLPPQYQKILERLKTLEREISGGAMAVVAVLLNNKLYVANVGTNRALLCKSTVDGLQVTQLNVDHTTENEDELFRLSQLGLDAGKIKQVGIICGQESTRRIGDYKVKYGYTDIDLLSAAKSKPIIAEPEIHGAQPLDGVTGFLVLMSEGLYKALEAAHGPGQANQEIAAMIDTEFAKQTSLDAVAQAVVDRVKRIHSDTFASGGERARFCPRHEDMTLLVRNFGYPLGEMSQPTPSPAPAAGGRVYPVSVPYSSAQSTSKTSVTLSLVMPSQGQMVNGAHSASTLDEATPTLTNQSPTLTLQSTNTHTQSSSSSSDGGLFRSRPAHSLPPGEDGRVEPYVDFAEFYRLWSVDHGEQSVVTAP

Chain of KIT (human) (P10721 whole entry, looked up): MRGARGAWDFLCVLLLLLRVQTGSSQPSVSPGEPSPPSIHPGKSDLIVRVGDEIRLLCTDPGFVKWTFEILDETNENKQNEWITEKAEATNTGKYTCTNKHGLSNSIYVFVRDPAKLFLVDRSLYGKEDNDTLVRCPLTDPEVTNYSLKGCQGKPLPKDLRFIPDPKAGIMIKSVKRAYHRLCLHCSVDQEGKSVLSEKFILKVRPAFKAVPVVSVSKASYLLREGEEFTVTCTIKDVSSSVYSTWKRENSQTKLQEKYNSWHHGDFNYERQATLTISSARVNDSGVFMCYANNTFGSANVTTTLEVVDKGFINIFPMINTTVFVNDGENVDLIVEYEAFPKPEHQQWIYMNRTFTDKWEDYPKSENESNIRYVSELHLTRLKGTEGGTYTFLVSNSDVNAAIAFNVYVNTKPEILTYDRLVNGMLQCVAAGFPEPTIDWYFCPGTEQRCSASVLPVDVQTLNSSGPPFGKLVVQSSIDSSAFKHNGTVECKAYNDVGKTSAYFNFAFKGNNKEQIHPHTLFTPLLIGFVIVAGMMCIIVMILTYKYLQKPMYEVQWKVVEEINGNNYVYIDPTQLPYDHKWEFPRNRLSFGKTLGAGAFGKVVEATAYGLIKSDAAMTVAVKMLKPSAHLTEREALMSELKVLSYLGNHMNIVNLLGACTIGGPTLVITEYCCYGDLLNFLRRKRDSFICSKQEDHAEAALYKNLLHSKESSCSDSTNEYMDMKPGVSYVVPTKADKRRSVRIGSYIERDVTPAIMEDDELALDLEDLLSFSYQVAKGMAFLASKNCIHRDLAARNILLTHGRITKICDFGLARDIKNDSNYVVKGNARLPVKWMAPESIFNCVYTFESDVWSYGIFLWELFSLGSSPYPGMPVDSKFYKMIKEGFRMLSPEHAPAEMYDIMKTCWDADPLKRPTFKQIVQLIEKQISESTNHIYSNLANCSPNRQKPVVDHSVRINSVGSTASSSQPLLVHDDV
Chain of ACVRL1 (human) (P37023 whole entry, looked up): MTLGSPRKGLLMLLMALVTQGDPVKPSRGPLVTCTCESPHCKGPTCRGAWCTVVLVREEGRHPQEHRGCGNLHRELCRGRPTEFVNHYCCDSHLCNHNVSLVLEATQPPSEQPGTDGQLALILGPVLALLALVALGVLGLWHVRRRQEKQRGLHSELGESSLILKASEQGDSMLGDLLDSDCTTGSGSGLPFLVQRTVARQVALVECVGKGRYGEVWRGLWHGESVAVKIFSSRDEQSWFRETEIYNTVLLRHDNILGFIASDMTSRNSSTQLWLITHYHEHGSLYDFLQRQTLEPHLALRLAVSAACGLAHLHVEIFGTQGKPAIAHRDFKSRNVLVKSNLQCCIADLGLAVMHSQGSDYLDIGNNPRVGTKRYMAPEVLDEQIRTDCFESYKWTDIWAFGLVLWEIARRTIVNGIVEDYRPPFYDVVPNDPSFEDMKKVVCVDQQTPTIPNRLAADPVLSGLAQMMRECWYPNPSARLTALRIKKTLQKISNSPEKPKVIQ
Chain of ABL1 (human) (P00519 whole entry, looked up): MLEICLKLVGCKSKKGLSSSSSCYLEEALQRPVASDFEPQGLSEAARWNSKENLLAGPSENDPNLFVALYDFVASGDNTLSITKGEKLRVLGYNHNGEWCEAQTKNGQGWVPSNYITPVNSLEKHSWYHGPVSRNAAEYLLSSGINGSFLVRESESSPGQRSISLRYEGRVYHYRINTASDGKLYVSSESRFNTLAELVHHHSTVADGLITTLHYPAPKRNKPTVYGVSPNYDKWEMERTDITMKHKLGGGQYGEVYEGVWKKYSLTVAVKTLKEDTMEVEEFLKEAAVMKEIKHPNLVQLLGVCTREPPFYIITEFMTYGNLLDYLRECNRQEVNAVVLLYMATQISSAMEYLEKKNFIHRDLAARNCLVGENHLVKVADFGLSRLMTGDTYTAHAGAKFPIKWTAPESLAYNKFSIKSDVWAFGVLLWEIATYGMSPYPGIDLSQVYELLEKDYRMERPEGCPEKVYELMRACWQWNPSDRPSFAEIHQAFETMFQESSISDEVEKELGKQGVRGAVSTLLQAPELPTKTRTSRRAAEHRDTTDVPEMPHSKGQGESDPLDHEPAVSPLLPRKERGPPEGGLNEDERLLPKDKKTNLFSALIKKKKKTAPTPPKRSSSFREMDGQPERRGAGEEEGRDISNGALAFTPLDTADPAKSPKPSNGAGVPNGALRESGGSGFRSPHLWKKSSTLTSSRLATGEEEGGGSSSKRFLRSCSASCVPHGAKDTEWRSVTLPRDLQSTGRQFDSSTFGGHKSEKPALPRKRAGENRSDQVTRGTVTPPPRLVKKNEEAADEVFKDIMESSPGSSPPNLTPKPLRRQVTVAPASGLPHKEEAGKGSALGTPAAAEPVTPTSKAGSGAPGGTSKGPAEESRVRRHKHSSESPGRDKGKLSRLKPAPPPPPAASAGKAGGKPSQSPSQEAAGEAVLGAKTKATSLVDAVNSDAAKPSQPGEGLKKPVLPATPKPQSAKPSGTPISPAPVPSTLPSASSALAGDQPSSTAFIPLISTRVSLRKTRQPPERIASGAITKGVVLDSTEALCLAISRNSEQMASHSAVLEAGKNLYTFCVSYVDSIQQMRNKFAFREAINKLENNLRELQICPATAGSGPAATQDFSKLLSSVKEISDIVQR
Chain of CAMK1 (human) (Q14012 whole entry, looked up): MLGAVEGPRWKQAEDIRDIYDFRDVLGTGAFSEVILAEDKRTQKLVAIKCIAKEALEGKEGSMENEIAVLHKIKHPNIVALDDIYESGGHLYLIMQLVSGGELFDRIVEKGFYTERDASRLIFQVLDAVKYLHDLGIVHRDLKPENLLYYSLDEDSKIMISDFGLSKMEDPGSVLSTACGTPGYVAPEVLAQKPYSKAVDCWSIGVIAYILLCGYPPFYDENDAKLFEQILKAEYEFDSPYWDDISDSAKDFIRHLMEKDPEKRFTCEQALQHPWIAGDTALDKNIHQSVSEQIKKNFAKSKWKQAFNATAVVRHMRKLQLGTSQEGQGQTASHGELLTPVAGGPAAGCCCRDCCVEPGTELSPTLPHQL

Work on `O=C1NC(=O)c2c1c1c3ccccc3[nH]c1c1[nH]c3cc(Br)ccc3c21` yielded a residual activity (CDK9 CCNK (human)) of 82.7%, a residual activity (CDK5 CDK5R1 p35 (human)) of 44.1% and a residual activity (PAK6 (human)) of 97.7%. For the same compound, the residual activity (MST4 (human)) was 80.5%, the residual activity (MATK (human)) was 97.3% and the residual activity (PRKCA (human)) was 72.5%. It also gave a residual activity (PBK (human)) of 86.3%, a residual activity (CAMK1 (human)) of 99% and a residual activity (PIM3 (human)) of 4.69%. For the same compound, the residual activity (CDC42BPA (human)) was 97.5%, the residual activity (DYRK3 (human)) was 94.5% and the residual activity (PRKCH (human)) was 100%. The residual activity (VRK1 (human)) was 92.3%, the residual activity (CDK7 CCNH MNAT1 (human)) was 93.1% and the residual activity (CDK9 CCNT1 (human)) was 87.5%. It also gave a residual activity (PIM2 (human)) of 44.6%, a residual activity (CAMK2D (human)) of 63.1% and a residual activity (ABL1 (human)) of 83.3%. It also gave a residual activity (PAK3 (human)) of 97.7%, a residual activity (HIPK2 (human)) of 107% and a residual activity (MAP3K11 (human)) of 14%. For the same compound, the residual activity (LYN (human)) was 92.1% and 93.2%, the residual activity (PRKCG (human)) was 76.6% and the residual activity (PDGFRA (human)) was 97.6%. It also gave a residual activity (PAK4 (human)) of 96.4%, a residual activity (ROCK2 (human)) of 72.7% and a residual activity (FYN (human)) of 95.2%. It also gave a residual activity (PRKG2 (human)) of 29.7%, a residual activity (FGR (human)) of 88.8% and a residual activity (CSNK2A1 (human)) of 93.1%. It also gave a residual activity (DAPK2 (human)) of 98.4%, a residual activity (MELK (human)) of 46.6% and a residual activity (ACVRL1 (human)) of 109%. It also gave a residual activity (STK3 (human)) of 55.8%, a residual activity (KIT (human)) of 128% and a residual activity (TTK (human)) of 98.7%. It also gave a residual activity (PKN2 (human)) of 88.7%, a residual activity (EPHA7 (human)) of 95.3% and a residual activity (DSTYK (human)) of 65.6%. The residual activity (MAP4K5 (human)) was 42.3% and the residual activity (MAP3K7 TAB1 (human)) was 91.4%.
Compound `N/C(=N\N=C/c1ccc(-c2cccc([N+](=O)[O-])c2)o1)N[N+](=O)[O-]` has a residual activity (CDK9 CCNK (human)) of 95.7%, a residual activity (CDK5 CDK5R1 p35 (human)) of 89.2% and a residual activity (PAK6 (human)) of 99%. For the same compound, the residual activity (MST4 (human)) was 99.5%, the residual activity (MATK (human)) was 94.3% and the residual activity (PRKCA (human)) was 115%. It also gave a residual activity (PBK (human)) of 111%, a residual activity (CAMK1 (human)) of 106% and a residual activity (PIM3 (human)) of 114%. For the same compound, the residual activity (CDC42BPA (human)) was 87.3%, the residual activity (DYRK3 (human)) was 102% and the residual activity (PRKCH (human)) was 98.1%. For the same compound, the residual activity (VRK1 (human)) was 95.1%, the residual activity (CDK7 CCNH MNAT1 (human)) was 100% and the residual activity (CDK9 CCNT1 (human)) was 109%. The residual activity (PIM2 (human)) was 106%, the residual activity (CAMK2D (human)) was 90.1% and the residual activity (ABL1 (human)) was 101%. It also gave a residual activity (PAK3 (human)) of 95.1%, a residual activity (HIPK2 (human)) of 103% and a residual activity (MAP3K11 (human)) of 99.4%. The residual activity (LYN (human)) was 96.3% and 99.4%, the residual activity (PRKCG (human)) was 96.4% and the residual activity (PDGFRA (human)) was 93.2%. The residual activity (PAK4 (human)) was 95.3%, the residual activity (ROCK2 (human)) was 86.3% and the residual activity (FYN (human)) was 101%. The residual activity (PRKG2 (human)) was 98.7%, the residual activity (FGR (human)) was 90.9% and the residual activity (CSNK2A1 (human)) was 91%. For the same compound, the residual activity (DAPK2 (human)) was 80.1%, the residual activity (MELK (human)) was 102% and the residual activity (ACVRL1 (human)) was 106%. For the same compound, the residual activity (STK3 (human)) was 100%, the residual activity (KIT (human)) was 96.4% and the residual activity (TTK (human)) was 95.9%. It also gave a residual activity (PKN2 (human)) of 92.6%, a residual activity (EPHA7 (human)) of 97.9% and a residual activity (DSTYK (human)) of 95.4%. It also gave a residual activity (MAP4K5 (human)) of 109% and a residual activity (MAP3K7 TAB1 (human)) of 91.5%.
Compound `O=c1c2ccccc2[nH]c(=S)n1CCN1CCC(=C(c2ccc(F)cc2)c2ccc(F)cc2)CC1` has a residual activity (CDK9 CCNK (human)) of 104%, a residual activity (CDK5 CDK5R1 p35 (human)) of 101% and a residual activity (PAK6 (human)) of 98.4%. The residual activity (MST4 (human)) was 91.6%, the residual activity (MATK (human)) was 92.9% and the residual activity (PRKCA (human)) was 73.1%. It also gave a residual activity (PBK (human)) of 107%, a residual activity (CAMK1 (human)) of 98.6% and a residual activity (PIM3 (human)) of 108%. It also gave a residual activity (CDC42BPA (human)) of 97.7%, a residual activity (DYRK3 (human)) of 101% and a residual activity (PRKCH (human)) of 102%. It also gave a residual activity (VRK1 (human)) of 95.9%, a residual activity (CDK7 CCNH MNAT1 (human)) of 99.6% and a residual activity (CDK9 CCNT1 (human)) of 102%. For the same compound, the residual activity (PIM2 (human)) was 129%, the residual activity (CAMK2D (human)) was 97.9% and the residual activity (ABL1 (human)) was 106%. The residual activity (PAK3 (human)) was 94.6%, the residual activity (HIPK2 (human)) was 105% and the residual activity (MAP3K11 (human)) was 95.2%. For the same compound, the residual activity (LYN (human)) was 105% and 108%, the residual activity (PRKCG (human)) was 100% and the residual activity (PDGFRA (human)) was 97%. For the same compound, the residual activity (PAK4 (human)) was 101%, the residual activity (ROCK2 (human)) was 98.8% and the residual activity (FYN (human)) was 102%. It also gave a residual activity (PRKG2 (human)) of 104%, a residual activity (FGR (human)) of 95.4% and a residual activity (CSNK2A1 (human)) of 97.9%. It also gave a residual activity (DAPK2 (human)) of 104%, a residual activity (MELK (human)) of 104% and a residual activity (ACVRL1 (human)) of 101%. For the same compound, the residual activity (STK3 (human)) was 102%, the residual activity (KIT (human)) was 103% and the residual activity (TTK (human)) was 96.3%. It also gave a residual activity (PKN2 (human)) of 97.2%, a residual activity (EPHA7 (human)) of 96.9% and a residual activity (DSTYK (human)) of 86.5%. The residual activity (MAP4K5 (human)) was 98.8% and the residual activity (MAP3K7 TAB1 (human)) was 103%.
`CCc1nc(-c2ccc(OC)cc2)[nH]c1-c1ccncc1` gave a residual activity (CDK9 CCNK (human)) of 97.9%, a residual activity (CDK5 CDK5R1 p35 (human)) of 100% and a residual activity (PAK6 (human)) of 102%. It also gave a residual activity (MST4 (human)) of 106%, a residual activity (MATK (human)) of 94.1% and a residual activity (PRKCA (human)) of 107%. It also gave a residual activity (PBK (human)) of 104%, a residual activity (CAMK1 (human)) of 108% and a residual activity (PIM3 (human)) of 112%. The residual activity (CDC42BPA (human)) was 96.3%, the residual activity (DYRK3 (human)) was 95.5% and the residual activity (PRKCH (human)) was 93%. The residual activity (VRK1 (human)) was 104%, the residual activity (CDK7 CCNH MNAT1 (human)) was 97.3% and the residual activity (CDK9 CCNT1 (human)) was 88.5%. It also gave a residual activity (PIM2 (human)) of 105%, a residual activity (CAMK2D (human)) of 96.4% and a residual activity (ABL1 (human)) of 101%. It also gave a residual activity (PAK3 (human)) of 103%, a residual activity (HIPK2 (human)) of 93.6% and a residual activity (MAP3K11 (human)) of 96.7%. For the same compound, the residual activity (LYN (human)) was 101% and 103%, the residual activity (PRKCG (human)) was 95.5% and the residual activity (PDGFRA (human)) was 96.3%. The residual activity (PAK4 (human)) was 118%, the residual activity (ROCK2 (human)) was 101% and the residual activity (FYN (human)) was 95.1%. The residual activity (PRKG2 (human)) was 91.9%, the residual activity (FGR (human)) was 97.2% and the residual activity (CSNK2A1 (human)) was 95.3%. For the same compound, the residual activity (DAPK2 (human)) was 104%, the residual activity (MELK (human)) was 110% and the residual activity (ACVRL1 (human)) was 101%. It also gave a residual activity (STK3 (human)) of 104%, a residual activity (KIT (human)) of 92.7% and a residual activity (TTK (human)) of 105%. For the same compound, the residual activity (PKN2 (human)) was 95.7%, the residual activity (EPHA7 (human)) was 91.6% and the residual activity (DSTYK (human)) was 99.6%. It also gave a residual activity (MAP4K5 (human)) of 106% and a residual activity (MAP3K7 TAB1 (human)) of 96.6%.
